Values quoted from earlier work, collected in US20220339103A1, “Lung-targeted corticosteroid treatment in viral respiratory disease, COVID-19 and ARDS (acute respiratory distress syndrome)” (Bodor Laboratories, Inc., priority 2021, published 2022).
Where two headings read alike, the source gives them in different places.

Columns and labels:
cotton pellet granuloma = settings: for ED50, anti-inflammatory activity in the cotton pellet granuloma test: subcutaneous cotton pellet granuloma test
thymus = settings: for TD50, thymolysis potency: subcutaneous cotton pellet granuloma test
[1] = molecular target: T1, rat lung cytosol glucocorticoid receptors (Rattus norvegicus, UniProt P06536); settings: compared with dexamethasone
T1 construct: from tissue; host or cells: rat lung cytosol
T1 sequence (P06536 1-795): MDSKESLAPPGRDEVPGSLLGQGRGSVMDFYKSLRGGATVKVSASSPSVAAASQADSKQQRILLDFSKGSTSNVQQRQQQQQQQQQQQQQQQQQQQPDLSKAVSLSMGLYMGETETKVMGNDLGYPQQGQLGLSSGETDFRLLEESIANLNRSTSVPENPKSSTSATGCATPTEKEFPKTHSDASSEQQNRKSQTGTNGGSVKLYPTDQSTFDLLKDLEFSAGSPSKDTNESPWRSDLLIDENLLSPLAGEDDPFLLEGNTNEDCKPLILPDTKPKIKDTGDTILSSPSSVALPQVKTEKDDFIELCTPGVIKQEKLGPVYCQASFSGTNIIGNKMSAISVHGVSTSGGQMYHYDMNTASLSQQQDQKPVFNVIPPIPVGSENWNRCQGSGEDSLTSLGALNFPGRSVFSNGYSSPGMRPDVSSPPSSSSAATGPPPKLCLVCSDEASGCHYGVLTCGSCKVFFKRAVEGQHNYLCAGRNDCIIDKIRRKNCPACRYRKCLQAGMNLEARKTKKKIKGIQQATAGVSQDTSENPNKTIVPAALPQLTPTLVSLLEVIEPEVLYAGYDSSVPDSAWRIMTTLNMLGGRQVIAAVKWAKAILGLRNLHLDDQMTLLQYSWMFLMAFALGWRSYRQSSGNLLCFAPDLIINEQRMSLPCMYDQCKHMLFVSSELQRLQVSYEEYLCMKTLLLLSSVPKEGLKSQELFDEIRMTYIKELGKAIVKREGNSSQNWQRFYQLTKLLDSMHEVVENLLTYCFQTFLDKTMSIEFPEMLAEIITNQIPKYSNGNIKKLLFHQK

[2] = system: seasonal allergic rhinitis (SAR) to grass pollen; settings: nasal spray, 100-800 μg, 645 SAR patients, vs PLA, p<0.03
Paraoxonase 1 = Paraoxonase 1 (Homo sapiens, UniProt P27169)
Paraoxonase 1, sequence (P27169 whole entry): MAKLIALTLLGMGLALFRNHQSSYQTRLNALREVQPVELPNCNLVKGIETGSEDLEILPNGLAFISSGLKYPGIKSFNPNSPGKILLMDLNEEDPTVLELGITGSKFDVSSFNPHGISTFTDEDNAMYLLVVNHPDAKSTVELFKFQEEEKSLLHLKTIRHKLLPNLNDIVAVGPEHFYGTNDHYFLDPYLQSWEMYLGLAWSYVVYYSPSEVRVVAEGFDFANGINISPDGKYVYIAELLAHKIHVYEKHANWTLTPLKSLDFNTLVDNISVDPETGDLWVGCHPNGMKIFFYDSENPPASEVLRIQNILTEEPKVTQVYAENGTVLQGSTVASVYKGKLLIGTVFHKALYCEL

[3] = human vasoconstrictor studies
intraocular pressure [4] = settings: long-term use, 28 days or longer; LE 0.2% or 0.5%, prednisolone acetate 1%
[5] = 0.2% ophthalmic suspension, 159 patients treated >1 yr
[6] = system: hypothalamic-pituitary axis; settings: at any Loteprednol Etabonate use
intraocular pressure [7] = settings: corneal transplant patients developing very high IOP
[8] = betamethasone 17α-valerate = 1.00

SMILES | Rel.pot., relative inflammatory effect compared to betamethasone (cotton pellet granuloma; [8]) | ED50, anti-inflammatory activity in the cotton pellet granuloma test (cotton pellet granuloma) [μg/pellet] | Rel.pot., relative timolysis effect (thymus; [8]) | TD50, thymolysis potency (thymus) | Rel.pot., relative timolysis effect (thymus; in vivo) | Rel.pot., relative inflammatory effect compared to betamethasone (cotton pellet granuloma; in vivo) | corticosteroid receptor binding [1] | change from baseline in two-week average reflective Total Nasal Symptom Score (TNSS) [2] | hydrolyzing esterase (Paraoxonase 1) | topical activity [3] | IOP elevation greater than or equal to 10 mmHg, share of subjects (intraocular pressure [4]) [%] | adverse effects of long-term use [5] | suppression of the hypothalamic-pituitary axis [6] | IOP after replacing prednisolone acetate with LE (intraocular pressure [7])
CCCCC(=O)O[C@]1(C(=O)CO)[C@@H](C)C[C@H]2[C@@H]3CCC4=CC(=O)C=C[C@]4(C)[C@@]3(F)[C@@H](O)C[C@@]21C [Betamethasone 17α-valerate (BV) (0.12%), Betamethasone 17α-valerate] | 1.00 | 84.8 | 1.00 | 212 μg/pellet | – | – | – | – | – | – | – | – | – | –
CCC(=O)O[C@]1(C(=O)CCl)[C@@H](C)C[C@H]2[C@@H]3CCC4=CC(=O)C=C[C@]4(C)[C@@]3(F)C(=O)C[C@@]21C [Clobetasone-17α-propi onate (KP) (0.1%), Clobetasone-17α-propi onate] | 29.70 | 2.9 | 19.30 | 11 μg/pellet | – | – | – | – | – | – | – | – | – | –
CCCC(=O)O[C@]1(C(=O)CO)CC[C@H]2[C@@H]3CCC4=CC(=O)CC[C@]4(C)[C@H]3[C@@H](O)C[C@@]21C [Hydrocortisone 17α-butyrate (HB) (0.1%), Hydrocortisone 17α-butyrate] | 0.70 | 121.0 | – | 369 μg/pellet | 0.57 | – | – | – | – | – | – | – | – | –
CCOC(=O)O[C@]1(C(=O)OCCl)CC[C@H]2[C@@H]3CCC4=CC(=O)C=C[C@]4(C)[C@H]3[C@@H](O)C[C@@]21C [Loteprednol Etabonate, chloromethyl 17α-ethoxycarbonyloxy-11β-hydroxyandrosta-1,4-dien-3-one-17β-carboxylate] | – | 178.0 | – | 10,000 μg/pellet | 0.02 | 0.48 | significantly higher than that of dexamethasone | significantly more efficacious than PLA | hydrolyzed by the HDL-connected Paraoxonase 1 | very good topical activity | 0.64 | no reported adverse effects | no significant suppression | all IOP-s were returned to normal
